Data from patent publication US9125388B2, “Biological control” (Isis Innovation Limited, priority 1999, dated 2015).

Legend:
Assay type in all cases: in vivo, Drosophila melanogaster
[1] = tested on: (Female) Sxlp^e tTa^(A) × tRe lacZ^(III) (Male); assay: Reporter crosses at 25° C., embryos stained for lacZ
Text: (§1) As with “single chromosome crosses”, ten to fifteen virgin females homozygous for the tTA construct and five to ten young males homozygous for the tRe construct were placed on food containing or lacking a tetracycline supplement.

[2] = tested on: (Male) Sxlp^e tTa^(A) tRe lacZ^(I) × C(1)DX (Female); assay: as above
Text: as §1
C(1)DX is a compound X chromosome; effectively two X chromosomes joined together. The X chromosome from males crossed to C(1)DX females is therefore inherited by the sons, rather than the daughters.

[3] = tested on: Hsp26 tTa, tRe Msl-1^Mpu on the 2nd chromosome; assay: Recombinant chromosome experiments: parents raised on supplement, progeny on normal food, adults by sex (25, 18 or 29° C.)
Protocol: (§2) 40-45 young females and 20-25 young males raised at 25° C. upon food with the indicated tetracycline supplement were allowed to mate, then transferred to normal (tetracycline-free) food after 3-4 days. These flies were transferred to fresh vials of normal food every day for 12 days, then removed on the 13th day. All the vials were incubated at 25° C. while the progeny developed. The numbers of male and female progeny emerging as adults in each vial were recorded.
(§3) A standard range of additive concentrations were used in the following experiments (0.05-20 μg/ml). […] (=“not done”)
(§4) All the preceding experiments were performed at 25° C., the standard temperature for Drosophila culture. However, the insects in the wild would clearly be exposed to varying temperatures, so we investigated the extent to which the efficiency of the system is affected by temperature. As with the recombinant chromosome experiments, 40-45 young virgin females and 20-25 young males raised at 25° C. upon food with the indicated tetracycline supplement were allowed to mate, then transferred to normal (tetracycline-free) food after 3-4 days. These flies were transferred to fresh vials of normal food every day. The numbers of male and female progeny emerging as adults in each vial were recorded. These experiments were performed at either 18° C. or 29° C.

[4] = tested on: Sxl^pe-tTA, tRE-Msl-2^Nopu on the X chromosome; assay: as above; settings: for Female progeny per daily vial / Female progeny Total / Male progeny Total: 25° C.; for Female progeny per daily vial: Day 1-12 on tetracycline-free food; for Female progeny Total / Male progeny Total: Day 1-12 total
Protocol: as §2, §3, §4

[5] = tested on: Sxl^pe-tTA, tRE-Ras64B^V12 on the third chromosome; assay: as above; settings: for Female progeny Total / Male progeny Total: Day 1-12 total
Protocol: as §2, §3, §4

[6] = tested on: Yp3 tTa, tRe Msl-1^Mpu on the 2nd chromosome; assay: as above
Protocol: as §2
Since there is no meiotic recombination in Drosophila melanogaster males, any of these recombinant chromosomes could be used in a genetic sexing or insect control program, if required.
as §3, §4

[7] = parents raised on tetracycline 0.1 μg/ml, 18° C.
[8] = parents raised on tetracycline 0.1 μg/ml, 29° C.
[9] = parents raised on tetracycline 1 μg/ml, 18° C.
[10] = parents raised on tetracycline 1 μg/ml, 29° C.
[11] = parents raised on tetracycline 5 μg/ml, 18° C.
[12] = parents raised on tetracycline 5 μg/ml, 29° C.
[13] = parents raised on Tet. 0.1 μg/ml
[14] = parents raised on Tet. 20 μg/ml
[15] = parents raised on Tet. 100 μg/ml
[16] = parents raised on Tet. 500 μg/ml
[17] = parents raised on Tet. 1000 μg/ml
[18] = parents raised on Tet. 2000 μg/ml
[19] = parents raised on Tet. 0.1 μg/ml, 25° C.
[20] = parents raised on Tet. 1 μg/ml, 25° C.
[21] = parents raised on Tet. 5 μg/ml, 25° C.
[22] = parents raised on Tet. 20 μg/ml, 25° C.
[23] = parents raised on Tet. 100 μg/ml, 25° C.
[24] = parents raised on Tet. 500 μg/ml, 25° C.
[25] = parents raised on Tet. 1000 μg/ml, 25° C.
[26] = parents raised on Tet. 2000 μg/ml, 25° C.

## CN(C)[C@@H]1C(O)=C(C(N)=O)C(=O)[C@@]2(O)C(O)=C3C(=O)c4c(O)cccc4[C@@](C)(O)[C@H]3C[C@@H]12 [Tetracycline, tetracycline]
[1]; Tetracycline 0.1 μg/ml in food
  LacZ negative Total: 709
  LacZ positive Total: 0
[1]; Tetracycline 1 μg/ml in food
  LacZ negative Total: 739
  LacZ positive Total: 0
[1]; Tetracycline 5 μg/ml in food
  LacZ negative Total: 651
  LacZ positive Total: 0
[2]; Tetracycline 0.1 μg/ml in food
  LacZ negative Total: 708
  LacZ positive Total: 0
[2]; Tetracycline 1 μg/ml in food
  LacZ negative Total: 737
  LacZ positive Total: 0
[2]; Tetracycline 5 μg/ml in food
  LacZ negative Total: 683
  LacZ positive Total: 0
[3]; [7]
  Female progeny emerging as adults: 6
  Male progeny emerging as adults: 628
[3]; [8]
  Female progeny emerging as adults: 0
  Male progeny emerging as adults: 733
[3]; [9]
  Female progeny emerging as adults: 3
  Male progeny emerging as adults: 614
[3]; [10]
  Female progeny emerging as adults: 0
  Male progeny emerging as adults: 776
[3]; [11]
  Female progeny emerging as adults: 5
  Male progeny emerging as adults: 712
[3]; [12]
  Female progeny emerging as adults: 0
  Male progeny emerging as adults: 728
[4]; [13]
  Female progeny per daily vial: 0
  Female progeny Total: 0
  Male progeny Total: 1464
[4]; parents raised on Tet. 1 μg/ml
  Female progeny per daily vial: 0
  Female progeny Total: 0
  Male progeny Total: 1527
[4]; parents raised on Tet. 5 μg/ml
  Female progeny per daily vial: 0
  Female progeny Total: 0
  Male progeny Total: 1535
[4]; [14]
  Female progeny per daily vial: 0
  Female progeny Total: 0
  Male progeny Total: 1243
[4]; [15]
  Female progeny per daily vial: 0
  Female progeny Total: 0
  Male progeny Total: 1483
[4]; [16]
  Female progeny Total: 2
  Male progeny Total: 1625
[4]; [17]
  Female progeny Total: 29
  Male progeny Total: 1402
[4]; [18]
  Female progeny Total: 44
  Male progeny Total: 1543
[4]; [7]
  Female progeny emerging as adults: 6
  Male progeny emerging as adults: 695
[4]; [8]
  Female progeny emerging as adults: 0
  Male progeny emerging as adults: 682
[4]; [9]
  Female progeny emerging as adults: 8
  Male progeny emerging as adults: 816
[4]; [10]
  Female progeny emerging as adults: 0
  Male progeny emerging as adults: 804
[4]; [11]
  Female progeny emerging as adults: 8
  Male progeny emerging as adults: 785
[4]; [12]
  Female progeny emerging as adults: 0
  Male progeny emerging as adults: 648
[5]; parents raised on Tet. 0.1 μg/ml, 25° C., Day 1-12 on tetracycline-free food
  Female progeny per daily vial: 0
[5]; [19]
  Female progeny Total: 0
  Male progeny Total: 1541
[5]; parents raised on Tet. 1 μg/ml, 25° C., Day 1-12 on tetracycline-free food
  Female progeny per daily vial: 0
[5]; [20]
  Female progeny Total: 0
  Male progeny Total: 1441
[5]; parents raised on Tet. 5 μg/ml, 25° C., Day 1-12 on tetracycline-free food
  Female progeny per daily vial: 0
[5]; [21]
  Female progeny Total: 0
  Male progeny Total: 1421
[5]; parents raised on Tet. 20 μg/ml, 25° C., Day 1-12 on tetracycline-free food
  Female progeny per daily vial: 0
[5]; [22]
  Female progeny Total: 0
  Male progeny Total: 1487
[5]; parents raised on Tet. 100 μg/ml, 25° C., Day 1-12 on tetracycline-free food
  Female progeny per daily vial: 0
[5]; [23]
  Female progeny Total: 0
  Male progeny Total: 1416
[5]; [24]
  Female progeny Total: 72
  Male progeny Total: 1388
[5]; [25]
  Female progeny Total: 87
  Male progeny Total: 1416
[5]; parents raised on Tet. 2000 μg/ml, 25° C., Day 1-12 on tetracycline-free food, listed as Tet.
  Male progeny per daily vial: 123
[5]; [26]
  Female progeny Total: 161
  Male progeny Total: 1438
[5]; [7]
  Female progeny emerging as adults: 6
  Male progeny emerging as adults: 1065
[5]; [8]
  Female progeny emerging as adults: 0
  Male progeny emerging as adults: 781
[5]; [9]
  Female progeny emerging as adults: 9
  Male progeny emerging as adults: 1124
[5]; [10]
  Female progeny emerging as adults: 0
  Male progeny emerging as adults: 749
[5]; [11]
  Female progeny emerging as adults: 7
  Male progeny emerging as adults: 989
[5]; [12]
  Female progeny emerging as adults: 0
  Male progeny emerging as adults: 741
[6]; even at low (parental) tetracycline concentrations
  escapers: < 1%
[6]; [7]
  Female progeny emerging as adults: 5
  Male progeny emerging as adults: 1303
[6]; [8]
  Female progeny emerging as adults: 0
  Male progeny emerging as adults: 799
[6]; [9]
  Female progeny emerging as adults: 14
  Male progeny emerging as adults: 1218
[6]; [10]
  Female progeny emerging as adults: 0
  Male progeny emerging as adults: 749
[6]; [11]
  Female progeny emerging as adults: 7
  Male progeny emerging as adults: 1386
[6]; [12]
  Female progeny emerging as adults: 0
  Male progeny emerging as adults: 744
